Test results taken from patent EP1655287A1, “PROBE FOR DISEASES WITH AMYLOID ACCUMULATION, AMYLOID-STAINING AGENT, REMEDY AND PREVENTIVE FOR DISEASES WITH AMYLOID ACCUMULATION AND DIAGNOSTIC PROBE AND STAINING AGENT FOR NEUROFIBRILLARY CHANGE” (priority 2003, dated 2005).

Assays:
Amyloid β-protein = assay: Screening of the degree of β-structure recognition (fluorescence, in the presence of Congo red); assay type: binding; settings: test compound 5 µM, amyloid β-protein 5 µM, Congo red 0.1 µM, phosphate buffer pH 7.4
[1] = Blood-brain barrier permeability after intravenous administration; settings: for Plasma: mice, content in plasma two minutes after intravenous administration
Description: (B) Testing of blood-brain barrier permeability Measurements of blood-brain barrier permeability were made according to the following procedures. Compounds of the present invention were intravenously administered to mice to determine their in vivo blood-brain barrier permeability. • (1) Mice utilized Slc:ICR weighing 30-40 g (7 weeks old, n=3) (Nippon SLC). • (2) A test compound was dissolved in a mixture of 1N HCl, polyethylene glycol 400, and DMSO, or in DMSO or ethyl alcohol, and then diluted with purified water, and injected via tail vein. Two minutes after administration, the mice, under ether anesthesia, were subjected to taking blood from the abdominal aorta with a heparin-treated syringe and removing the brain. • (3) After taking blood, blood samples were centrifuged at 14,000 rpm at 4°C for 10 minutes, and their supernatants were kept at -80°C as plasma sample. The brain (including cerebellum) was kept at -80°C after its removal. • (4) The plasma sample, when used, was thawed, diluted with purified water, and then applied to a conditioned C18 solid-phase extraction cartridge (bond elute C18, 200 mg, Varian), followed by elution with methyl alcohol. Alternatively, after thawing the plasma sample, a diethyl ether/cyclohexane mixture was added, and the mixture was shaken, and then centrifuged to separate an oil layer. • (5) The brain material, when used, was subjected to measuring its wet weight with the brain remaining frozen, and saline was added to the brain for homogenization. The homogenate was centrifuged for 10 minutes, and the supernatant was applied to a conditioned C18 solid-phase extraction cartridge and eluted with methyl alcohol. Alternatively, after measuring the wet weight of the frozen brain, a diethyl ether/cyclohexane mixture was added to the brain, and the mixture was homogenized, shaken, and then centrifuged to separate an oil layer. • (6) The absorbance and fluorescence were detected employing high performance liquid chromatography. • (7) For each of the plasma and brain, the content of the test compound in the plasma or brain (%ID (injected dose)/ml or g) was determined, relative to the administered dose.

senile plaques = biological target: T1, senile plaques (Homo sapiens, UniProt P05067); assay: Staining of senile plaques and diffuse plaques in brain sections, compared with thioflavin S, BSB or anti-Aβ antibody 6F/3D immunostaining; assay type: binding, patient with Alzheimer's disease; settings: 100 µM compound in 50% ethanol; for staining properties in sections of the brain of a patient with Alzheimer's disease: compared with thioflavin S (and BSB) on adjacent sections; for staining properties compared with immunostaining of anti-Aβ antibody 6F/3D: adjacent sections immunostained with 6F/3D
T1 construct: The former has, as the main component, amyloid β-protein (Aβ protein) taking β-sheet structures; from tissue; host or cells: paraffin-embedded temporal lobe or hippocampus sections of an Alzheimer's disease patient's brain (Fukushimura Hospital)
From the text: The following explanation is made about testing of staining properties of the compounds of the present invention on brain sections of an Alzheimer's disease patient. • (1) Temporal lobe or hippocampus specimens of the brain of a patient who had been definitely diagnosed pathologically as Alzheimer's disease and of a normal aged individual were used. These specimens were provided from Fukushimura Hospital, our joint research facility, with the consent to their use for research purpose received from the bereaved family of the patient (BF Research Laboratories Institutional Ethics Board Permission No. RS-99-02). • (2) The brain tissues embedded in paraffin were sliced 6 or 8 µm thick, extended on slides, and dried. The paraffin-embedded brain sections were deparaffined by washing sequentially with xylene (10 minutes, twice), 100% ethanol (15 minutes, twice), 95% ethanol (15 minutes, twice), and a stream of water (10 minutes). • (3) Pre-treatment for staining with compounds of the present invention involved treating the sections for eliminating self-fluorescence due to lipofuscin. First, the deparaffined sections were immersed into a 10% formalin solution for 60 minutes and washed with PBS for 5 minutes, followed by immersion into a 0.25% solution of KMnO4 for 90 minutes. After washing twice with PBS for 2 minutes each, the sections were immersed into a solution of 0.1% K2S2O5/oxalic acid for about 30 seconds each, and then washed three times with PBS for 2 minutes each. • (4) About 150 µl of a 100 µM solution of a compound of the present invention dissolved in 50% ethanol was added dropwise onto the sections and allowed the reaction to be carried out for 10 minutes. The sections were dipped into tap water five times, and then 50% ethanol three to five times, followed by immediate classification. After that, the sections were immersed into PBS for 60 minutes, enclosed with Fluor Save Reagent (Calbiochem), and examined under a fluorescent microscope (Nikon, Eclips E800). Pictures were taken using a digital camera (Plaroid PDMCII).
Immunostaining was carried out as follows. • (a) Procedures for immunostaining amyloid β-protein: • (1) After the sections were deparaffined, the sections were washed twice in distilled water for 2 minutes each, and tissues were marked with an Immunopen. About 150 µl of formic acid was added dropwise and allowed to stand at room temperature for 5 minutes. The sections were washed with tap water for 5 minutes and immersed into cold PBS-Tween 20 for 2 minutes, and then about 150 µl of a 0.05% trypsin solution was added dropwise and allowed the reaction to be carried out at 37°C for 15 minutes. • (2) In an ice bath, the sections were washed twice with cold PBS-Tween 20 for 5 minutes each, and two drops of blocking serum were added and allowed the reaction to be carried out at 37°C for 15 minutes. Excess water was removed, and about 150 µl of 6F/3D, an antibody specific to amyloid β-protein (DAKO; diluted 1:50) was added dropwise and allowed the reaction to be carried out at 37°C for 1 hour. • (3) Further, after washing five times with cold PBS-Tween 20 for 2 minutes each, two drops of a solution of goat antimouse IgG (H+L) conjugated to biotin were added and allowed the reaction to be carried out at 37°C for 1 hour. After that, the sections were washed three times with cold PBS-Tween 20 for 2 minutes each, and two drops of ABS solution (a streptavidin-biotin-peroxidase complex solution) were added and allowed to stand for 30 minutes. The sections were again washed three times with cold PBS-Tween 20 for 2 minutes each, and about 150 µl of DAB solution (prepared by dissolving 10 mg of DAB in 20 ml of 0.05 mol/l Tris-HCl buffer and adding 100 µl of 3% hydrogen peroxide immediately before use) were added and allowed the color to be developed sufficiently. Then, the sections were washed with distilled water for 1 minute to stop the reaction, enclosed, and examined under a microscope.

[2] = Acute toxicity testing, intravenous administration; assay type: in vivo; settings: male Crj:CD1 mice, via tail vein, observed up to 7 days; for MTD at 168 h: mouse, in vivo, iv, read-out: Maximum Tolerated Dose (mg/kg, intravenous administration)
Description: The following explanation is made of testing methods for properties of the compounds of the present invention. (A) Testing of acute toxicity Acute toxicity of the inventive compounds was determined employing mice by intravenous administration. Male Crj:CD1 mice were used and divided into groups of 4 mice, with an average weight of each group of 31-32 g. […] Up to 7 days after administration, observations were made.

T1 sequence (P05067 672-713 limits assumed): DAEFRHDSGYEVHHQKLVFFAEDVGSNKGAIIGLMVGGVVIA

Compound	Degree of β-structure recognition (%) (Amyloid β-protein)	staining properties in sections of the brain of a patient with Alzheimer's disease (senile plaques)	further results
CN(C)c1ncc(/C=C/c2nc3ccc(I)cc3o2)s1 [BF-247, 6-(iodo)-2-[2-(2-dimethylaminothiazol-5-yl)ethenyl]benzoxazole]	43.7%	–	–
CNc1ccc(/C=C/C=C/c2nc3ccccc3[nH]2)cc1 [BF-188, 2-[[4-(4-methylamino)phenyl]-1,3-butadienyl]benzoimidazole]	68.9%	stains senile plaques	Plasma [1]: 1.7 %ID/g or ml
CN(C)c1ncc(/C=C/C=C/c2nc3ccccc3[nH]2)s1 [BF-231, 2-[4-(2-dimethylaminothiazol-5-yl)-1,3-butadienyl]benzoimidazole]	47.2%	stains senile plaques	Maximum Tolerated Dose (mg/kg, intravenous administration) [2]: ≧ 10 mg/kg
Nc1ccc(/C=C/C=C/c2nc3ccc(O)cc3o2)c(O)c1 [BF-201]	82.0%	stains senile plaques	staining properties compared with immunostaining of anti-Aβ antibody 6F/3D (senile plaques): stains senile plaques
CN(C)c1nnc(/C=C/c2nc3ccccc3o2)o1 [BF-238, 2-[2-(2-dimethylamino-1,3,4-oxazol-5-yl)ethenyl]benzoxazole]	52.3%	–	–
CN(C)c1ncc(/C=C/c2nc3ccccc3o2)o1 [BF-230, 2-[2-(2-dimethylaminooxazol-5-yl)ethenyl]benzoxazole]	74.0%	–	MTD at 168 h [2]: ≥ 10 mg/kg
CNc1ccc(/C=C/C=C/c2nc3ccccc3s2)cc1 [BF-187, 2-[[4-(4-methylamino)phenyl]-1,3-butadienyl)benzothiazole]	63.3%	stains senile plaques	Plasma [1]: 1.3 %ID/g or ml
Cc1nc(/C=C/C=C/c2ccc(N(C)C)cc2)oc1C [BF-228, 2-[4-(4-dimethylaminophenyl)-1,3-butadienyl]-4,5-dimethyloxazole]	83.8%	–	MTD at 168 h [2]: ≥ 10 mg/kg
2-[2-(2-dimethylamino-1,3,4-thiazol-5-yl)ethenyl]benzoxazole [BF-237]	76.5%	–	–
Nc1cnc(-c2ccc3ccccc3n2)o1 [BF-255, 2-(5-アミノオキサゾール-2-イル)キノリン]	65.8%	–	–
CN(C)c1cnc(/C=C/c2nc3ccccc3s2)o1 [BF-250, 2-[2-(5-dimethylaminooxazol-2-yl)ethenyl]benzothiazole]	43.1%	–	–
Nc1ncc(-c2ccc3ccccc3n2)s1 [BF-240, 2-(2-aminothiazol-5-yl)quinoline]	49.9%	–	–
Cc1ccc(S(=O)(=O)OCCOc2ccc3nc(/C=C/c4cnc(N(C)C)s4)oc3c2)cc1 [BF-226, 2-[2-(2-dimethylaminothiazol-5-yl)ethenyl]-6-[2-(4-tosyloxy)ethoxy]benzoxazole]	43.3%	–	–
CNc1ccc(/C=C/C=C/c2nc3ccccc3o2)cc1 [BF-185, 2-[[4-(4-methylamino)phenyl]-1,3-butadienyl)benzoxazole]	82.7%	mainly stains senile plaques	Plasma [1]: 1.0 %ID/g or ml; staining properties compared with immunostaining of anti-Aβ antibody 6F/3D (senile plaques): stains senile plaques (Fig. 3, wedge-shaped arrowheads) and diffuse plaques
CN(C)c1ncc(-c2nc3ccccc3o2)s1 [BF-225, 2-(2-dimethylaminothiazol-5-yl)benzoxazole]	87.5%	–	–
CN(C)c1ncc(/C=C/c2nc3ccccc3[nH]2)s1 [BF-248, 2-[2-(2-dimethylaminothiazol-5-yl)ethenyl]benzimidazole]	40.1%	–	–
CN(C)c1ncc(-c2ccc3ccccc3n2)o1 [BF-221, 2-(2-dimethylaminooxazol-5-yl)quinoline]	73.8%	–	–
Cc1nc(/C=C/C=C/c2cnc(N(C)C)o2)oc1C [BF-229, 2-[4-(2-dimethylaminooxazol-5-yl)-1,3-butadienyl]-4,5-dimethyloxazole]	70.7%	–	–
CCC[CH2][Sn]([CH2]CCC)([CH2]CCC)[c]1ccc2nc(C=Cc3cnc(N(C)C)s3)oc2c1 [BF-246, 6-tri(n-butyl)stannyl-2-[2-(2-dimethylaminothiazol-5-yl)ethenyl]benzoxazole]	24.6%	–	–
Cc1ccc(S(=O)(=O)OCCOc2ccc3nc(/C=C/c4cnc(N(C)C)s4)sc3c2)cc1 [BF-251, 2-[2-(2-dimethylaminothiazol-5-yl)ethenyl]-6-[2-(4-tosyloxy)ethoxy]benzothiazole]	37.5%	–	–
O=C(O)c1cc(/C=C/c2ccc(/C=C/c3ccc(O)c(C(=O)O)c3)c(Br)c2)ccc1O [BSB, (trans, trans)-1-bromo-2,5-bis-(3-hydroxycarbonyl-4-hydroxy)styrylbenzen, reference compound]	–	stains both senile plaques and neurofibrillary tangles	–
CN(C)c1ncc(/C=C/c2nc3ccccc3s2)s1 [BF-196, 2-[2-(2-dimethylaminothiazol-5-yl)ethenyl]benzothiazole]	53.5%	mainly stains senile plaques	Plasma [1]: 1.8 %ID/g or ml; tissue uptake at 2 min ([1]; mouse, brain, iv): 19 %ID/g; staining properties compared with immunostaining of anti-Aβ antibody 6F/3D (senile plaques): stains senile plaques
Cc1ccc2c(c1)sc(-c1ccc(N(C)C)cc1)[n+]2C [Thioflavin T, reference compound]	61.8%	–	–
thioflavin S [reference compound]	–	stains both senile plaques and neurofibrillary tangles	–
CNc1ncc(/C=C/c2ccc(O)cc2)s1 [BF-235, 5-(4-hydroxystyryl)-2-methylaminothiazole]	65.5%	–	–
CN(C)c1ncc(/C=C/c2nc3ccc(OCCF)cc3s2)s1 [BF-252, 2-[2-(2-dimethylaminothiazol-5-yl)ethenyl]-6-[2-(fluoro)ethoxy]benzothiazole]	47.0%	–	–
